How the values were obtained:
Hep3B cells [1] = assay: TUNNEL (TUNEL) apoptosis assay; type: cell-based; conditions: 2 μM
Experimental: (§1) TUNEL assay was performed using a kit from Roche Biochemicals according to published procedure (Athar et al., 2004). Briefly, cells were fixed with 4% paraformaldehyde at room temperature for 1 h and permeated with 0.1% Triton X-100, 0.1% sodium citrate (freshly prepared) on ice for 2 min. After washing with PBS, each sample was incubated with 50 μl of TUNEL reaction mixture at 37° C. for 30 min. TUNEL labeled solution (without enzyme) was used as a negative control. TUNEL positive cells were counted under a fluorescent microscope. The counting was repeated three times and the percentage from each counting was calculated.

Hep2G cells = assay: TUNNEL (TUNEL) apoptosis assay; type: cell-based; conditions: 2 μM
Experimental: as §1

Huh7 cells [2] = assay: MTT cell growth assay; type: cell-based; conditions: tomatidine, negative control
Experimental: (§2) HCC cell cell lines (Hep3B, HepG2, HCC36, PLC/PRF/5 (identified as PLC) and Huh 7) were provided by Chiaho Shih, Tien Ko and Kui Li at UTMB. All cells were cultured in Dulbeco-modified essential medium (DMEM) with 10% FBS and antibiotics. […] In addition, the specific inhibition of hedgehog signaling in HCC cells was achieved by addition of Shh neutralizing antibodies (1 μg/ml in 0.5% FBS DMEM, Car# SC-9024, Santa Cruz Biotechnology, Santa Cruz, Calif.). […] Transient transfection of Gli1 in HCC cells was performed using LipofectAmine according to the manufacturer's recommendation (Plasmid-LipofectAmine=1:2.5). Cells with ectopic expression of Gli1 were subjected to drug treatment and to TUNEL (terminal deoxynucleotidyl transferase-mediated dUTP nick end labeling) assay.
(§3) For cell viability analysis, two methods were used: trypan Blue analysis and MTT assay. Trypan Blue analysis was performed to manufacturer's instruction (Invitrogen, CA). The percentage of trypan blue positive cell (dead cells) were calculated under a microscope and triplicates of samples for each treatment were used in a 96-well format. Twenty microliters of MTT (10 mg/ml in PBS) was added to each well (containing 100 μl cultured medium, 0.5% FBS DMEM). […] Thirty minutes later, absorbance was measured at 570 nm using a microplate reader from Molecular Devices Co., Sunnyvale, Calif. […]

Hep3B cells [3] = assay: real-time PCR of hedgehog target genes Gli1 and PTCH1 after drug treatment; type: cell-based; conditions: 2 μM
Experimental: as §2

[4] = test system: Huh 7 cells that transiently expressed Gli1; assay: TUNEL assay in cells with ectopic expression of Gli1; type: cell-based; conditions: Huh 7 cells transiently expressing Gli1 under CMV promoter
Experimental: as §1

[5] = test system: cells regardless of hedgehog signaling; assay: toxicity of KAAD-cyclopamine to cells regardless of hedgehog signaling; type: cell-based; conditions: 5 or 10 μM
GI cancer cells = GI cancer cells (Ma et al., 2006); cited from earlier work
Hep3B cells [6] = assay: Trypan blue cell death assay; type: cell-based; conditions: KAAD-cyclopamine 2 μM
Experimental: as §2, §3

[7] = test system: liver cancer cells with activated hedgehog signaling pathway; assay: induction of apoptosis in liver cancer cells; type: cell-based; conditions: 2 μM KAAD-cyclopamine
Experimental: as §1

Huh7 cells [8] = assay: BrdU incorporation; type: cell-based
Shh promoter = assay: sonic hedgehog promoter activity (luciferase reporter) in HCV expressing cells; type: cell-based; conditions: Huh7 cells with stable expression of HCV; HCV RNA replication inhibited by interferon treatment
From the text: Furthermore, the present invention also examined whether HCV RNA replication was a major trigger for activated hedgehog signaling in Hepatocellular carcinoma. In order to do so, cell lines with or without HCV RNA replication for the sonic hedgehog (shh) promoter activity were compared. The promoter activity of SHH was higher in Huh7 cells than in HepG2 cells. […] However, the shh promoter activity was reduced when the HCV RNA replication was inhibited by interferon treatment as shown in 2-3c (FIG. 7B).

Huh7-2-3(+) cells = assay: real-time PCR of Gli1 in HCV replicating cells after interferon; type: cell-based; conditions: Huh7-2-3(+) cells treated with interferon (giving Huh7-2-3(−) cells)
From the text: The activation of hedgehog signaling pathway in hepatocellular carcinoma infected with virus or bacteria was also examined. Huh7 cells are hepatocellular carcinoma cells that can support HCV replication (Scholle F. et al., 2004. Huh7-2-3(+) are Huh7 cells that allow active HCV replication and Huh7-2-3(−) cells are derived from Huh7-2-3(+) cells following interferon treatment for two weeks to prevent virus replication. SIIA are gastric cancer cells with hedgehog signaling activation and used as control.

Row | Compound | apoptosis (TUNNEL assay) (Hep3B cells [1]) | apoptosis (TUNNEL assay) (Hep2G cells) | cell growth (MTT assay) (Huh7 cells [2]) | levels of Gli1 and PTCH1 transcripts (Hep3B cells [3]) | TUNEL / sensitivity to treatment [4] | toxicity to cells [5] | concentration that could cause non-specific toxicity (GI cancer cells) [µM] | level of cell death (Trypan blue) (Hep3B cells [6]) | time within which apoptosis is induced [7] [h] | BrdU incorporation (Huh7 cells [8]) | shh promoter activity (Shh promoter) | expression of Gli1 (Huh7-2-3(+) cells)
1 | C[C@H]1CC[C@]2(NC1)O[C@H]1C[C@H]3[C@@H]4CC[C@H]5C[C@@H](O)CC[C@]5(C)[C@H]4CC[C@]3(C)[C@H]1[C@@H]2C [tomatidine] | did not induce apoptosis | did not induce apoptosis | did not affect cell growth | little discemible effect |  |  |  |  |  |  |  | 
2 | KAAD-cyclopamine | apoptosis | no detectable apoptosis |  |  | negative for TUNEL | quite toxic | 10 | increased level of cell death | ≤ 12 | reduced |  | 
3 | interferon |  |  |  |  |  |  |  |  |  |  | reduced | reduced
